The results in this text go back to ChEMBL document CHEMBL2069169, “Novel triazines as potent and selective phosphodiesterase 10A inhibitors” (Bioorg Med Chem Lett, 2012).

Data set [1] can be described thus: Volume of distribution at steady state in rat at 2 mg/kg, iv and 10 mg/kg, po. As to conditions: in vivo, read-out: Vdss. The data set is classed as ADME, organism-based.
For data set [2], the target named is Phosphodiesterase 6. Nature of the data set: Inhibition of PDE6. The data set is classed as protein assay, Homo sapiens.
Data set [3] is described as follows: AUC in rat plasma at 2 mg/kg, iv and 10 mg/kg, po. The data set is classed as ADME, organism-based.
Data set [4] is described as follows: Clearance in rat at 2 mg/kg, iv and 10 mg/kg, po. Format: ADME, organism-based. The settings on record: in vivo.
Data set [5] has as its target Phosphodiesterase 4 (Homo sapiens, UniProt P27815+Q08499+Q07343+Q08493). In words: Inhibition of PDE4. Format: protein assay.
Data set [6] has as its target cGMP-specific 3',5'-cyclic phosphodiesterase (Canis lupus familiaris, UniProt O77746). In words: Inhibition of PDE5. The arrangement: species or system Homo sapiens.
The test system of data set [7] is Rattus norvegicus. Nature of the data set: Antipsychotic activity in po dosed rat assessed as reduction of MK801-induced stereotyped sniffing. Format: functional. As to conditions: for minimal effective dose: Rattus norvegicus, po, read-out: MED. The arrangement: Activity: scale not given: the % may be the effect or the level left.
Data set [8] concerns the target Phosphodiesterase 3 (Homo sapiens, UniProt Q14432+Q13370). In words: Inhibition of PDE3. Format: protein assay.
The nature of data set [9]: AUC in rat brain at 2 mg/kg, iv and 10 mg/kg, po. Format: ADME, organism-based.
Data set [10] is described as follows: Elimination half life in rat at 2 mg/kg, iv and 10 mg/kg, po. Format: ADME, organism-based. As to conditions: in vivo, read-out: beta t1/2 (converted).
Data set [11] has as its system Rattus norvegicus. Nature of the data set: Antipsychotic activity in po dosed rat assessed as reduction of MK801-induced hyperactivity. The data set is classed as functional. The arrangement: Activity: scale not given: the % may be the effect or the level left. As to conditions: for minimal effective dose: Rattus norvegicus, po, read-out: MED.
Data set [12] in a line: Oral bioavailability in rat at 10 mg/kg. Format: ADME, organism-based. The settings on record: in vivo.
The species named for data set [13] is Homo sapiens. Nature of the data set: Selectivity ratio of IC50 PDE6 to IC50 for human recombinant PDE10A.
The species entered for data set [14] is Homo sapiens. In words: Selectivity ratio of IC50 PDE3 to IC50 for human recombinant PDE10A.
For data set [15], the species on record is Homo sapiens. Nature of the data set: Selectivity ratio of IC50 PDE4 to IC50 for human recombinant PDE10A.
The species entered for data set [16] is Homo sapiens. Nature of the data set: Selectivity ratio of IC50 PDE5 to IC50 for human recombinant PDE10A.
Data set [17] is filed under the species Homo sapiens. In words: Selectivity ratio of IC50 PDE2 to IC50 for human recombinant PDE10A.
For data set [18], the target named is cGMP-dependent 3',5'-cyclic phosphodiesterase (Homo sapiens, UniProt O00408). In words: Inhibition of PDE2.

The structures appear in SMILES notation. Where only a bound is given, the exact number is not on record here.

Sequence of cGMP-dependent 3',5'-cyclic phosphodiesterase (O00408 whole entry): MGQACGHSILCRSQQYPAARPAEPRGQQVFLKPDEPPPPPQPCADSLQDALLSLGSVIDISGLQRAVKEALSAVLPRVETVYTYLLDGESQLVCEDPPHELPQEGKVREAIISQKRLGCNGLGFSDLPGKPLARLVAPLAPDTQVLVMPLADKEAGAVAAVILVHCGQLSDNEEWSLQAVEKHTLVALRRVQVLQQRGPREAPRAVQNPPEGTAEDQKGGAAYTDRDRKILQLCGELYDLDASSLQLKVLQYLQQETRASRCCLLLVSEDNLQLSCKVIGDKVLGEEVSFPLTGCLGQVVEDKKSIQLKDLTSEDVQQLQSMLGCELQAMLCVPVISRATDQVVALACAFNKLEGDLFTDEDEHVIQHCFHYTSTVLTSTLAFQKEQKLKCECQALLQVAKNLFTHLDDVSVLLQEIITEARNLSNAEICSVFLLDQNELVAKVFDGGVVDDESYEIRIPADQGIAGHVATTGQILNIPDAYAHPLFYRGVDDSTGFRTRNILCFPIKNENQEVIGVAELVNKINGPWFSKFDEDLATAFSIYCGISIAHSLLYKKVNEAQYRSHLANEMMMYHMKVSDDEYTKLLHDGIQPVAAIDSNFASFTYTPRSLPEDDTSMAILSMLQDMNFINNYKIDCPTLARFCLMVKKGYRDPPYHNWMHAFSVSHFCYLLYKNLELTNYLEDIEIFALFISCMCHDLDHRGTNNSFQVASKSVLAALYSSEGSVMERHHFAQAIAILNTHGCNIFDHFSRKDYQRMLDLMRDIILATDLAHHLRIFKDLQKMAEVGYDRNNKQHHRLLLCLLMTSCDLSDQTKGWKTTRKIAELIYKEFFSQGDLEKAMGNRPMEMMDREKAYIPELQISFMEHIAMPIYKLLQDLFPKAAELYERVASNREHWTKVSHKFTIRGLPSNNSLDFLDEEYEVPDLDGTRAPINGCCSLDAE

Take `COc1cc(OC)c2nnc3c(C)nc(-c4cnccc4C)n3c2c1`: the Vd in data set [1] is 0.5 L/kg. Also, the IC50 (usually the midpoint of a concentration-inhibition curve) was 1.822 µM in [2], greater than 10 µM in data set [5], 5.07 µM in data set [6] and greater than 10 µM in [8]. Also, the exposure (AUC) (in general, concentration integrated over time) in [3] was determined as 8.79 µg·h/mL; in data set [9], 3 µg·h/mL. The same molecule had a clearance in data set [4] of 0.84 L/h/kg. In addition, the Activity in data set [7] is on record as 69.8%; in data set [11] it was 79.9%. The minimal effective dose in data set [7] and in [11] was 1 mg/kg each time. In data set [10], the half-life was 48 min. Moreover, in [12], the bioavailability – broadly, the share of a dose that reaches the circulation, judged against a reference dose that is usually intravenous – turned out to be 100%.

For `COc1cc(OC)c2nnc3c(C)nc(-c4cccnc4C)n3c2c1`, the Vd in data set [1] came to 0.4 L/kg. The IC50 is 0.493 µM in data set [2], greater than 10 µM in data set [5], 1.43 µM in data set [6] and greater than 10 µM in data set [8]. The results for the AUC in [3] and in data set [9] were 21.3 µg·h/mL and 6.59 µg·h/mL, respectively. The molecule further displayed a clearance in data set [4] of 0.24 L/h/kg. In addition, the Activity is listed as 71.3% in [7] and 90.2% in [11]. The minimal effective dose in data set [7] and in data set [11] was 0.25 mg/kg each time. The half-life in [10] is 120 min. In [12], this molecule displayed a bioavailability of 100%.

Take `COc1ccnc2c1nnc1c(C)nc(-c3ccncc3C)n12`: the IC50 is greater than 10 µM in [2], 3.68 µM in [5], greater than 10 µM in [6] and greater than 10 µM in data set [8]. Also, the Ratio IC50 in data set [13], in data set [14], in data set [15], in data set [16] and in data set [17] was greater than 100 throughout. Further, the Activity in data set [7] is on record as 34.1%; in [11], 55.4%. Besides, the minimal effective dose in data set [7] and in data set [11] was 2.5 mg/kg throughout.

As to `COc1cc(OC)c2nnc3c(C)nc(-c4ccncc4C)n3c2c1`, the Vd in data set [1] turned out to be 0.4 L/kg. Also, the 50% inhibitory concentration (IC50) in data set [2] is 1.24 µM; in data set [5], greater than 10 µM; in data set [6], 4.95 µM; in [8] it was greater than 10 µM. Besides, the results for the AUC in data set [3] and in data set [9] were 18.7 µg·h/mL and 2.78 µg·h/mL, respectively. The molecule further registered a clearance in data set [4] of 0.78 L/h/kg. In addition, the Activity in data set [7] is recorded as 57.4%; in data set [11], 71.7%. Moreover, the minimal effective dose in data set [7] and in data set [11] was 0.5 mg/kg each time. In addition, the half-life in [10] is 54 min. The Ratio IC50 in data set [17] is 300. Moreover, in data set [12], the bioavailability is 100%.

`COc1cc(F)c2nnc3c(C)nc(-c4ccccc4OC)n3c2c1`: the IC50 in data set [2], in data set [5], in data set [6] and in data set [8] was greater than 1 µM each time. Also, the Ratio IC50 in data set [17] was greater than 400.

Take `COc1cc(OC)c2nnc3c(C)nc(-c4ccccc4Cl)n3c2c1`: the half-inhibitory concentration (IC50) in data set [2] is 0.07315 µM; in data set [18], 0.0303 µM; in [5], 1.91 µM; in data set [6] it was 0.436 µM; in [8] it was greater than 5 µM. Besides, the Activity in data set [7] is reported as 55.7%; in [11], 70.3%. Moreover, the minimal effective dose in data set [7] and in [11] was 0.5 mg/kg each time.

As to `COc1cccc2c1nnc1c(C)nc(-c3ccccc3C)n12`, the IC50 is 1.98 µM in [2], 0.176 µM in data set [5], 3.67 µM in data set [6] and greater than 10 µM in data set [8]. The Ratio IC50 in data set [17] is 60.
